Positions count from the first letter of the chain named. Like-named read-outs stand apart in the source and are kept apart here.
What was measured:
[1] = target: T1, hAR (human androgen receptor, baculovirus/Sf9 generated extracts) (Homo sapiens, UniProt P10275); experiment: AR Binding Assay (competitive binding with 3H-DHT tracer); details: 1 nM 3H-DHT, one hour at 4° C., mean of multiple tests
T1 construct: made in house; host or cells: baculovirus/Sf9 insect cells (crude extract)
T1 sequence (P10275 1-920): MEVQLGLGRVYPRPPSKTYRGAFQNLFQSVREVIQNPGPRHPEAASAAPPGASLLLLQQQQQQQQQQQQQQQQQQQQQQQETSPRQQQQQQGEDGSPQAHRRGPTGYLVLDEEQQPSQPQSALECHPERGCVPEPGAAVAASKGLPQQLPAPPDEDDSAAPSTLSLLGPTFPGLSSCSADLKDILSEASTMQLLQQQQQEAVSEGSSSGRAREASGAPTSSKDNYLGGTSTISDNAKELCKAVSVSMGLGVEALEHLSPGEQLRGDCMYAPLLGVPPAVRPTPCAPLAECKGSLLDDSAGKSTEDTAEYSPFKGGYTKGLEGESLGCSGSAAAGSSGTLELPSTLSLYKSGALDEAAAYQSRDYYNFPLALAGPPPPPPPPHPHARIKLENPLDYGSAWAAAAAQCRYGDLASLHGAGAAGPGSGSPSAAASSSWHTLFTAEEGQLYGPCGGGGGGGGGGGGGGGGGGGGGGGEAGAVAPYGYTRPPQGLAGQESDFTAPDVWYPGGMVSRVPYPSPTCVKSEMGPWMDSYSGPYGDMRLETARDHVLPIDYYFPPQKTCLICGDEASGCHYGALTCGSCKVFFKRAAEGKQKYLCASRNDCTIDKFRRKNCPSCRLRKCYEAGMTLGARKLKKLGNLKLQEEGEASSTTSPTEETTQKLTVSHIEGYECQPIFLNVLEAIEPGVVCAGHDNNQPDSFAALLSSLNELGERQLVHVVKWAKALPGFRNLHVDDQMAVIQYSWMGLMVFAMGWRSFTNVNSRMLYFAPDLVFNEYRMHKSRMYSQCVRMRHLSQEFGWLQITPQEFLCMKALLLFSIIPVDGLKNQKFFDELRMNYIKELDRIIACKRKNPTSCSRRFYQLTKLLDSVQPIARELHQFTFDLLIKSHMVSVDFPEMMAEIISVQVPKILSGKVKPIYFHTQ
Description: The compounds of Formula I have affinity for the androgen receptor. […] The description below describes how the assay was carried out.
Competitive binding analysis was performed on baculovirus/Sf9 generated hAR extracts in the presence or absence of different concentrations of test agent and a fixed concentration of ^3H-dihydrotestosterone (^3H-DHT) as tracer. This binding assay method is a modification of a protocol previously described (Liao S., et. al., J. Steroid Biochem., 20:11-17, 1984). Briefly, progressively decreasing concentrations of compounds are incubated in the presence of hAR extract (Chang et al., P.N.A.S., Vol. 89, pp. 5546-5950, 1992), hydroxylapatite, and 1 nM ^3H-DHT for one hour at 4° C. Subsequently, the binding reactions are washed three times to completely remove excess unbound ^3H-DHT. hAR bound ^3H-DHT levels are determined in the presence of compounds (i.e. competitive binding) and compared to levels bound when no competitor is present (i.e. maximum binding). Compound binding affinity to the hAR is expressed as the concentration of compound at which one half of the maximum binding is inhibited. Table II below provides the results that were obtained for selected compounds (reported data is the mean of multiple tests as shown below).

[2] = target: T2, androgen receptor in MDA-MB453-MMTV clone 54-19 cells (Homo sapiens, UniProt P10275); experiment: AR Antagonist Cell Assay (MMTV-luciferase reporter, DHT-induced); type: cell-based; details: MDA-MB453-MMTV clone 54-19, 100 pM DHT, 17 hr; mean of multiple tests
T2 sequence (P10275 1-920 Q868H): T1 sequence (P10275 1-920) with Q868H
Description: The compounds ability to antagonize the effects of androgen on the androgen receptor were determined in a whole cell assay as described immediately below.
Cell line: MDA-MB453-MMTV clone 54-19. This cell line is a stable transfected cell line with MDA-MB453 cell background (a human breast tumor cell line expressing androgen receptor). A MMTV minimal promoter containing ARE was first cloned in front of a firefly luciferase reporter gene. Then the cascade was cloned into transfection vector pUV120puro. Electroporation method was used for transfecting MDA-MB-453 cell. Puromycin resistant stable cell line was selected.
Culture medium: DMEM (high glucose, Gibco cat #: 11960-044), 10% FBS, and 1% L-glutamine
Plating medium: DMEM (phenol red free), 10% charcoal treated HyClone serum, 1% L-glutamine
Assay medium: DMEM (phenol red free), 1% charcoal treated HyClone serum, 1% L-glutamine, and 1% penicillin/streptomycin
3× luciferase buffer: 2% beta-mercaptoethanol, 0.6% ATP, 0.0135% luciferine in cell lysis buffer
Cells are maintained in culture medium, splitting cells when they reach 80-90% confluence. To test compounds, 10,000 cells/well are plated to opaque 96 cell culture plate in 100 ul/well plating medium, culture for overnight at 37° C. in cell culture incubator. Carefully remove plating medium, then add 80 ul/well of pre-warmed assay medium, add 10 ul/well testing compound (final concentration at) 1000 nM, 200 nM, 40 nM, 8 nM, 1.6 nM, and 0.32 nM), incubate at 37° C. for 30 minutes. Add 10 ul/well freshly prepared DHT (final concentration at 100 pM) to each well, incubate at 37° C. for 17 hr (overnight). Add 50 ul/well 3× luciferase buffer, incubate at room temperature for 5 minutes, then count on Luminometer. The fold induction over background by 100 pM DHT in the absence of testing compounds is standardized as 100% and experimental result is expressed as percentage of inhibition by testing compounds.
The results are reported as the mean of multiple tests as described below (the numbers of tests are indicated in the footnote). ND denotes that the compound was not tested.

[3] = hAR extract, read-out: AR Binding IC50

| Structure (SMILES) | IC50 ([1]; AR Binding IC50, hAR extract) | IC50 [2] | IC50 [1, 3] |
| --- | --- | --- | --- |
| CC(Oc1ccc(C#N)c(C(F)(F)F)c1)c1cccc(C#N)c1 (single isomer, unassigned) [Example 78, 4-[1-(3-Cyano-phenyl)-ethoxy]-2-trifluoromethyl-benzonitrile] | 37 nM | 47 nM |  |
| CC(Oc1ccc(C#N)c(C(F)(F)F)c1)c1cccc(O)c1 (single isomer, unassigned; (+)) [Example 10, (+)-4-[1-(3-Hydroxyphenyl)ethoxy]-2-(trifluoromethyl)benzonitrile] | 3 nM | ≥ 1000 nM |  |
| CCC(Oc1ccc(C#N)c(C(F)(F)F)c1)c1cccc(O)c1 (single isomer, unassigned; (+)) [Example 12, (+)4-[1-(3-Hydroxyphenyl)propoxy]-2-(trifluoromethyl)benzonitrile] | 19 nM | > 1000 nM |  |
| C=CCC(Oc1ccc(C#N)c(C(F)(F)F)c1)c1cccc(O)c1 (single isomer, unassigned; (+)) [Example 18, (+)4-{[1-(3-Hydroxyphenyl)but-3-enyl]oxy}-2-(trifluoromethyl)benzonitrile] | 17 nM | 86 nM |  |
| CCC(Oc1ccc(C#N)c(C(F)(F)F)c1)c1cccc(O)c1 (single isomer, unassigned; (-)) [Example 13, (−)4-[1-(3-Hydroxyphenyl)propoxy]-2-(trifluoromethyl)benzonitrile] | 23 nM | 31 nM |  |
| C[C@H](Oc1ccc(C#N)c(C(F)(F)F)c1)c1ccccc1 [Example 2, (S)-4-(1-Phenyl-ethoxy)-2-trifluoromethyl-benzonitrile] | 13 nM | 381 nM |  |
| C[C@@H](Oc1ccc(C#N)c(C(F)(F)F)c1)c1ccccc1 [Example 3, (R)-4-(1-Phenyl-ethoxy)-2-trifluoromethyl-benzonitrile] | 3 nM | 61 nM |  |
| COc1cccc(C(C)Oc2ccc(C#N)c(C(F)(F)F)c2)c1 (stereo not drawn) [Example 4, 4-[1-(3-Methoxy-phenyl)-ethoxy]-2-t-trifluoromethyl-benzonitrile] |  | > 1000 nM | 78 nM |
| COc1ccccc1C(C)Oc1ccc(C#N)c(C(F)(F)F)c1 (stereo not drawn) [Example 5, 4-[1-(2-Methoxy-phenyl)-ethoxy]-2-t-trifluoromethyl-benzonitrile] |  | > 1000 nM | 312 nM |
| C=CC(Oc1ccc(C#N)c(C(F)(F)F)c1)c1cccc(O)c1 (stereo not drawn) [Example 16, 4-{[1-(3-Hydroxyphenyl)prop-2-enyl]oxy}-2-(trifluoromethyl)benzonitrile] | 11 nM | 416 nM |  |
| CC(Oc1ccc(C#N)c(C(F)(F)F)c1)c1ccccc1Cl (stereo not drawn) [Example 22, 4-[1-(2-Chloro-phenyl)-ethoxy]-2-trifluoromethyl-benzonitrile] |  | 102 nM | 108 nM |
| CC(Oc1ccc(C#N)c(C(F)(F)F)c1)c1ccccc1F (stereo not drawn) [Example 24, 4-[1-(2-Fluoro-phenyl)-ethoxy]-2-trifluoromethyl-benzonitrile] | 79 nM | 826 nM |  |
| CC(Oc1ccc(C#N)c(C(F)(F)F)c1)c1ccc(F)cc1 (stereo not drawn) [Example 25, 4-[1-(4-Fluoro-phenyl)-ethoxy]-2-trifluoromethyl-benzonitrile] | 137 nM | 92 nM |  |
| CC(Oc1ccc(C#N)c(C(F)(F)F)c1)c1cccc(Cl)c1 (stereo not drawn) [Example 26, 4-[1-(3-Chloro-phenyl)-ethoxy]-2-trifluoromethyl-benzonitrile] | 122 nM | 56 nM |  |
| Cc1cccc(C(C)Oc2ccc(C#N)c(C(F)(F)F)c2)c1 (stereo not drawn) [Example 28, 4-(1-m-Tolyl-ethoxy)-2-trifluoromethyl-benzonitrile] | 50 nM | 573 nM |  |
| CC(Oc1ccc(C#N)c(C(F)(F)F)c1)c1cccc(C#N)c1 (stereo not drawn) [Example 30, 4-[1-(3-Cyano-phenyl)-ethoxy]-2-trifluoromethyl-benzonitrile] | 22 nM | 7 nM |  |
| CC(Oc1ccc(C#N)c(C(F)(F)F)c1)c1ccccc1C(F)(F)F (stereo not drawn) [Example 31, 2-Trifluoromethyl-4-[1-(2-trifluoromethyl-phenyl)-ethoxy]-benzonitrile] |  | 398 nM | 146 nM |
| C[C@@H](Oc1ccc(C#N)c(C(F)(F)F)c1)c1ccccn1 [Example 36, (R)-(+)-4-(1-Pyridin-2-yl-ethoxy)-2-trifluoromethyl-benzonitrile] | 54 nM | 28 nM |  |
| CC(C)(Oc1ccc(C#N)cc1Cl)c1ccccc1 [Example 37, 3-Chloro-4-(1-methyl-1-phenyl-ethoxy)-benzonitrile] |  | > 1000 nM | 184 nM |
| N#Cc1ccc(OCc2cccc(O)c2)c(Cl)c1 [Example 41, 3-Chloro-4-(3-hydroxy-benzyloxy)-benzonitrile] |  | 286 nM | 76 nM |
| CCCCCCC(Oc1ccc(C#N)c(C(F)(F)F)c1)c1ccccc1 (stereo not drawn) [Example 46, 4-(1-Phenyl-heptyloxy)-2-trifluoromethyl-benzonitrile] |  | > 1000 nM | 204 nM |

From patent US20090170886A1 (Pfizer Inc, priority 2005, published 2009)
